Measured values published in ChEMBL document CHEMBL1131951, “Sialidase inhibitors related to zanamivir: synthesis and biological evaluation of 4H-pyran 6-ether and ketone” (Bioorg Med Chem Lett, 1999).

Assays:
[1] = test system: Influenza B virus; experiment: Inhibitory activity against sialidase of influenza B; assay type: functional, organism-based
[2] = test system: Influenza A virus; experiment: Inhibitory activity against sialidase of influenza A; assay type: functional, organism-based

Q: Which results are given for `CCC(CC)O[C@@H]1OC(C(=O)O)=C[C@H](N)[C@H]1NC(C)=O`?
A: IC50 [1]: 42000 nM; IC50 [2]: 770 nM

Q: How did the IC50 [1] turn out when `CCN(CC)C(=O)[C@@H]1OC(C(=O)O)=C[C@H](N)[C@H]1NC(C)=O` was run?
A: The IC50 was 360 nM.

Q: And the IC50 [2]?
A: The IC50 was 3 nM.

Q: Which results are given for `CCC(CC)C(=O)[C@@H]1OC(C(=O)O)=C[C@H](N)[C@H]1NC(C)=O`?
A: IC50 [1]: 470 nM; IC50 [2]: 2 nM

Q: How did the IC50 [1] turn out when `CCC(CC)C(O)[C@@H]1OC(C(=O)O)=C[C@H](N)[C@H]1NC(C)=O` (some centres not stated) was run?
A: The IC50 was 7400 nM.

Q: And the IC50 [2]?
A: Its IC50 is 39 nM.

Q: Which results are given for `CCC(CC)O[C@@H]1C=C(C(=O)O)C[C@H](N)[C@H]1NC(C)=O` [OSELTAMIVIR CARBOXYLATE]?
A: IC50 [1]: 32 nM; IC50 [2]: 2 nM

Q: What does the source list for `CC(=O)N[C@H]1[C@H]([C@H](O)[C@H](O)CO)OC(C(=O)O)=C[C@@H]1NC(=N)N` [ZANAMIVIR]?
A: IC50 [1]: 4 nM; IC50 [2]: 5 nM
